Assay results as given in patent US20140213538A1, “LYSOPHOSPHATIDIC ACID RECEPTOR ANTAGONISTS” (InterMune, Inc., priority 2013, published 2014).

Molecular target: T1, LPA/S1P GPCR of interest (Homo sapiens, UniProt Q92633)
T1 construct: host or cells: CHO
Test: Beta-Arrestin based assay (PathHunter)
Assay type: cell-based
Procedure: CMV promoter based DNA constructs expressing a fusion of the LPA/S1P GPCR of interest and ProLink™ tag were used to transfect EA Parental™ CHO cells (DiscoverX, Fremont, Calif.) using a FuGENE® transfection kit (Roche). Beta-Arrestin based assays were conducted 24-48 hrs post transfection using PathHunter® assay kits (DiscoverX, Fremont, Calif.). Agonist and antagonist assays were performed in quadruplicate in white 384 well plates. End point luminescence data were plotted and fit to a 4 parameter logistic function to obtain IC50 values. For antagonist assays, an IC80 concentration of agonist (LPA) equal to 0.5 micromolar was used.

T1 sequence (Q92633 whole entry): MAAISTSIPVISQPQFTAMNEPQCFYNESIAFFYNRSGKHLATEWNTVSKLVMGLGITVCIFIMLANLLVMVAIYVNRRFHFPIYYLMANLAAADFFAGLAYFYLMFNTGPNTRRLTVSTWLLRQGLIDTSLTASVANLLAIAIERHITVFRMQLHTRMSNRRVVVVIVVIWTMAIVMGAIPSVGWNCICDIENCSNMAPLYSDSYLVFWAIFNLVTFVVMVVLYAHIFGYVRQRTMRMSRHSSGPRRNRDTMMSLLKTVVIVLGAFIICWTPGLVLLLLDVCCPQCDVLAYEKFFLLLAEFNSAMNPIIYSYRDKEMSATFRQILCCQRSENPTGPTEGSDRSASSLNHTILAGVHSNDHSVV

Cc1nsc(-c2cc3sc(-c4ccc(C5(C(=O)O)CC5)c(S(C)(=O)=O)c4)cc3s2)c1NC(=O)O[C@H](C)c1ccccc1 [IT458]
EC50: > 500 nM

Cc1nsc(-c2cc3sc(-c4ccc5c(CC(=O)O)coc5c4)cc3s2)c1NC(=O)O[C@H](C)c1ccccc1 [IT290]
EC50: > 500 nM

Cc1nsc(-c2cc3sc(-c4ccc(C5(C(=O)O)CC5)cc4OC(F)(F)F)cc3s2)c1NC(=O)O[C@H](C)c1ccccc1 [IT387]
EC50: 50 to 500 nM

Cc1nsc(-c2cc3sc(-c4ccc(CC(=O)O)cc4Cl)cc3s2)c1NC(=O)O[C@H](C)c1ccccc1 [IT161]
EC50: > 500 nM

C[C@@H](OC(=O)Nc1c(-c2ccc(-c3ccc(C(=O)O)s3)cc2)nnn1C)c1ccccc1 [IT203]
EC50: > 500 nM

Cc1nsc(-c2cc3sc(-c4ccc(-c5nnc(CC(=O)O)o5)cc4)cc3s2)c1NC(=O)O[C@H](C)c1ccccc1 [IT207]
EC50: > 500 nM

Cc1nsc(-c2cc3sc(-c4ccc(CC(=O)O)c(F)c4)cc3s2)c1NC(=O)O[C@H](C)c1ccccc1 [IT294]
EC50: 50 to 500 nM

Cc1nsc(-c2ccc(-c3nnc(C4(C(=O)O)CC4)s3)cc2)c1NC(=O)O[C@H](C)c1ccccc1 [IT200]
EC50: > 500 nM

COc1cc(CC(=O)O)c(F)cc1-c1cc2sc(-c3cnn(C)c3NC(=O)O[C@H](C)c3ccccc3)cc2s1 [IT410]
EC50: > 500 nM

C[C@@H](OC(=O)Nc1c(-c2cc3sc(-c4ccc5occ(CC(=O)O)c5c4)cc3s2)cnn1C)c1ccccc1 [IT332]
EC50: 50 to 500 nM

Cc1nsc(-c2cc3sc(-c4ccc(C5(C(=O)O)CC5)nc4)cc3s2)c1NC(=O)O[C@H](C)c1ccccc1 [IT271]
EC50: 50 to 500 nM

C[C@@H](OC(=O)Nc1c(-c2cc3sc(-c4ccc(CC(=O)O)c(F)c4)cc3s2)nnn1C)c1ccccc1 [IT293]
EC50: 50 to 500 nM

Cc1nsc(-c2cc3sc(-c4ccc(C5(C(=O)O)CC5)s4)cc3s2)c1NC(=O)O[C@H](C)c1ccccc1 [IT274]
EC50: 50 to 500 nM

Cc1nsc(-c2cc3sc(-c4ccc(C5(C(=O)O)CC5)c(C(F)(F)F)c4)cc3s2)c1NC(=O)O[C@H](C)c1ccccc1 [IT381]
EC50: 50 to 500 nM

C[C@@H](OC(=O)Nc1c(-c2cc3sc(-c4ccc5occ(CC(=O)O)c5c4)cc3s2)nnn1C)c1ccccc1 [IT268]
EC50: 50 to 500 nM

C[C@@H](OC(=O)Nc1c(-c2cc3sc(-c4ccc5[nH]cc(CC(=O)O)c5c4)cc3s2)nnn1C)c1ccccc1 [IT298]
EC50: 50 to 500 nM

C[C@@H](NC(=O)Nc1c(C#Cc2cc3sc(C4(C(=O)O)CC4)cc3s2)cnn1C)c1ccccc1 [IT109]
EC50: < 50 nM

Cc1cc(-c2cc3sc(-c4nnn(C)c4NC(=O)O[C@H](C)c4ccccc4)cc3s2)ccc1CC(=O)O [IT250]
EC50: 50 to 500 nM

C[C@@H](OC(=O)Nc1c(-c2cc3sc(-c4ccc(CC(=O)O)nc4)cc3s2)nnn1C)c1ccccc1 [IT215]
EC50: 50 to 500 nM

Cc1noc(-c2ccc(-c3ccc(OC(C)C(=O)O)cc3)cc2)c1NC(=O)O[C@H](C)c1ccccc1 (single isomer, unassigned) [IT256]
EC50: < 50 nM

C[C@@H](OC(=O)Nc1c(-c2cc3sc(-c4ccc(C5(C(=O)O)CC5)s4)cc3s2)cnn1C)c1ccccc1 [IT272]
EC50: 50 to 500 nM

C[C@@H](OC(=O)Nc1c(-c2ccc(C#CC(=O)NCC(=O)O)cc2)cnn1C)c1ccccc1 [IT398]
EC50: > 500 nM

C[C@@H](OC(=O)NC1=C(c2ccc(-c3cc(F)c(OC(C)(C)C(=O)O)c(F)c3)cc2)OC2C=CC=CC12)c1ccccc1 (some centres unmarked) [IT501]
EC50: 50 to 500 nM

C[C@@H](OC(=O)Nc1c(-c2cc(F)c(-c3cc(F)c(Oc4ncccc4C(=O)O)c(F)c3)cc2F)cnn1C)c1ccccc1 [IT473]
EC50: < 50 nM

C[C@@H](OC(=O)Nc1c(-c2ccc(C#CC(=O)NC3(C(=O)O)CC3)cc2)cnn1C)c1ccccc1 [IT405]
EC50: > 500 nM

COc1cc(C2(C(=O)O)CC2)ccc1-c1cc2sc(-c3snc(C)c3NC(=O)O[C@H](C)c3ccccc3)cc2s1 [IT360]
EC50: > 500 nM

C[C@@H](OC(=O)Nc1c(-c2ccc(-c3ccc(OC(C)(C)C(=O)O)c(F)c3)cc2)oc2ccccc12)c1ccccc1 [IT504]
EC50: 50 to 500 nM

C[C@@H](OC(=O)Nc1c(-c2cc3sc(-c4cnc(C5(C(=O)O)CC5)c(F)c4)cc3s2)nnn1C)c1ccccc1 [IT393]
EC50: < 50 nM

C[C@@H](OC(=O)Nc1c(-c2cc3sc(-c4ccc(CC(=O)O)c(C(F)(F)F)c4)cc3s2)cnn1C)c1ccccc1 [IT222]
EC50: 50 to 500 nM

C[C@@H](OC(=O)Nc1c(-c2cc3sc(-c4ccc(CC(=O)O)cc4C(F)(F)F)cc3s2)nnn1C)c1ccccc1 [IT363]
EC50: > 500 nM

C[C@@H](OC(=O)Nc1c(-c2ccc(C#CC(=O)Nc3cccc(C(=O)O)c3)cc2)cnn1C)c1ccccc1 [IT429]
EC50: > 500 nM

Cc1cc(-c2cc3sc(-c4cnn(C)c4NC(=O)O[C@H](C)c4ccccc4)cc3s2)c(F)cc1C1(C(=O)O)CC1 [IT339]
EC50: 50 to 500 nM

C[C@@H](OC(=O)Nc1c(-c2cc3sc(-c4ccc(C5(C(=O)O)CC5)cc4C(F)(F)F)cc3s2)nnn1C)c1ccccc1 [IT299]
EC50: 50 to 500 nM

Cc1noc(-c2ccc(-c3ccc(OCC(=O)O)cc3)cc2)c1NC(=O)O[C@H](C)c1ccccc1 [IT277]
EC50: 50 to 500 nM

C[C@@H](OC(=O)Nc1c(-c2cc3sc(-c4ccc(-c5nnc(CC(=O)O)o5)cc4)cc3s2)cnn1C)c1ccccc1 [IT206]
EC50: > 500 nM

COc1cc(C2(C(=O)O)CC2)c(F)cc1-c1cc2sc(-c3cnn(C)c3NC(=O)O[C@H](C)c3ccccc3)cc2s1 [IT411]
EC50: 50 to 500 nM

Cc1nsc(-c2cc3sc(-c4ccc(CC(=O)O)c(F)c4F)cc3s2)c1NC(=O)O[C@H](C)c1ccccc1 [IT265]
EC50: 50 to 500 nM

C[C@@H](OC(=O)Nc1c(-c2cc3sc(-c4ccc5c(C6(C(=O)O)CC6)coc5c4)cc3s2)nnn1C)c1ccccc1 [IT396]
EC50: 50 to 500 nM

Cc1nsc(-c2cc3sc(-c4ccc(C5(C(=O)O)CC5)c(F)c4)cc3s2)c1NC(=O)O[C@H](C)c1ccccc1 [IT297]
EC50: < 50 nM

C[C@@H](OC(=O)Nc1c(-c2cc3sc(-c4ccc5[nH]c(C6(C(=O)O)CC6)nc5c4)cc3s2)nnn1C)c1ccccc1 [IT422]
EC50: > 500 nM

Cc1nsc(-c2cc3sc(-c4ccc(-c5nnc(CC(=O)O)s5)cc4)cc3s2)c1NC(=O)O[C@H](C)c1ccccc1 [IT213]
EC50: > 500 nM

Cc1nsc(-c2ccc(-c3ncc(C(=O)O)s3)cc2)c1NC(=O)O[C@H](C)c1ccccc1 [IT177]
EC50: > 500 nM

C[C@@H](OC(=O)Nc1c(-c2ccc(-c3ncc(C(=O)O)s3)cc2)nnn1C)c1ccccc1 [IT209]
EC50: > 500 nM

C[C@@H](OC(=O)Nc1c(-c2cc3sc(-c4ccc5occ(C6(C(=O)O)CC6)c5c4)cc3s2)nnn1C)c1ccccc1 [IT335]
EC50: > 500 nM

C[C@@H](OC(=O)Nc1c(-c2cc3sc(-c4ccc(C5(C(=O)O)CC5)cc4C(F)(F)F)cc3s2)cnn1C)c1ccccc1 [IT247]
EC50: 50 to 500 nM

Cc1nsc(-c2cc3sc(-c4ccc(C5(C(=O)O)CC5)c(F)c4F)cc3s2)c1NC(=O)O[C@H](C)c1ccccc1 [IT366]
EC50: < 50 nM

C[C@@H](NC(=O)C#Cc1ccc(-c2cnn(C)c2NC(=O)O[C@H](C)c2ccccc2)cc1)C(=O)O [IT399]
EC50: > 500 nM

C[C@@H](OC(=O)Nc1c(-c2cc3sc(-c4cnc(C5(C(=O)O)CC5)s4)cc3s2)cnn1C)c1ccccc1 [IT249]
EC50: 50 to 500 nM

Cc1nsc(-c2ccc(-c3nnc(C4(C(=O)O)CC4)o3)cc2)c1NC(=O)O[C@H](C)c1ccccc1 [IT176]
EC50: > 500 nM

C[C@@H](OC(=O)Nc1c(-c2cc3sc(-c4ccc5c(C6(C(=O)O)CC6)coc5c4)cc3s2)cnn1C)c1ccccc1 [IT395]
EC50: > 500 nM
